In PubChem BioAssay (NCI):
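All cell lines were grown in 96-well plates and treated with compound for 48 hours. GI50 marks 50% less growth. TGI denotes the concentration required for complete inhibition of growth.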

Key:
Assay in all cases: NCI-60 cell line screen, 48 h
A498 renal = system: A498 renal
CAKI-1 renal = system: CAKI-1 renal
EKVX NSCLC = system: EKVX NSCLC
HCC-2998 colon = system: HCC-2998 colon
HT29 colon = system: HT29 colon
M14 melanoma = system: M14 melanoma
MDA-MB-231 breast = system: MDA-MB-231 breast
NCI/ADR-RES ovarian = system: NCI/ADR-RES ovarian
OVCAR-3 ovarian = system: OVCAR-3 ovarian
RPMI-8226 leukemia = system: RPMI-8226 leukemia

SMILES | GI50 (A498 renal) [µM] | TGI (A498 renal) [µM] | GI50 (CAKI-1 renal) [µM] | TGI (CAKI-1 renal) [µM] | GI50 (EKVX NSCLC) [µM] | TGI (EKVX NSCLC) [µM] | GI50 (HCC-2998 colon) [µM] | TGI (HCC-2998 colon) [µM] | GI50 (HT29 colon) [µM] | TGI (HT29 colon) [µM] | GI50 (M14 melanoma) [µM] | TGI (M14 melanoma) [µM] | GI50 (MDA-MB-231 breast) [µM] | TGI (MDA-MB-231 breast) [µM] | GI50 (NCI/ADR-RES ovarian) [µM] | TGI (NCI/ADR-RES ovarian) [µM] | GI50 (OVCAR-3 ovarian) [µM] | TGI (OVCAR-3 ovarian) [µM] | GI50 (RPMI-8226 leukemia) [µM] | TGI (RPMI-8226 leukemia) [µM]
N/C(=N/S(=O)(=O)c1cc(C(=O)Nc2ccc(F)cc2)c(Cl)cc1SCc1ccccc1)Nc1ccccc1O | 16.3 | 30.5 | 23.8 | > 100 | 1.81 | 4.46 | 2.86 | 7.34 | 11 | > 100 | 3.87 | 14.4 | 1.54 | 3.1 | > 100 | > 100 | 1.44 | 2.81 | 2.61 | 6.1
CCSCCCC(=O)O | – | > 100 | – | > 100 | – | > 100 | – | > 100 | – | > 100 | – | > 100 | – | > 100 | – | > 100 | – | > 100 | – | > 100
O=c1[nH]c(=O)n(C2OC(CO)C(O)C2O)cc1F (centres undefined) | 0.0876 | 5.61 | 0.0104 | 18.1 | – | > 93.8 | 0.0346 | 54.2 | 0.0697 | > 100 | 0.0819 | > 75.8 | – | > 100 | – | > 100 | 0.0231 | 10.9 | 0.0742 | 44.8
OCC1OC(n2cnc3c(NCc4ccccc4O)ncnc32)C(O)C1O (centres undefined) | 1.21 | 6.09 | 0.349 | 9.43 | 1.03 | > 100 | 1.76 | 8.42 | 2.23 | 52.9 | 0.756 | 11.8 | 0.0769 | 3.28 | 0.435 | 24.4 | 0.388 | 2.08 | 5.11 | > 63.6
Cc1ccc(NC2=CC(=O)C(=O)c3ccccc32)cc1 | 1.32 | 5.41 | 3.14 | 16.5 | 4 | 18.9 | 2.11 | 4.89 | 2.14 | 4.47 | 1.9 | 3.79 | 2.57 | 15.8 | 2.17 | 17.4 | 1.66 | 4.86 | 3.55 | > 100
CC(C)(C)OC(=O)N1Cc2cc3ccccc3nc2C1CO (centres undefined) | > 100 | > 100 | > 100 | > 100 | > 100 | > 100 | > 100 | > 100 | > 100 | > 100 | > 100 | > 100 | > 100 | > 100 | > 100 | > 100 | > 100 | > 100 | > 100 | > 100
C[C@@H](Oc1cc(-c2cnn(C3CCNCC3)c2)cnc1N)c1c(Cl)cc(F)cc1Cl | 1.3 | 3.82 | 3.17 | 12.6 | 3.72 | 17.3 | 2.42 | 8.65 | 1.11 | 3.56 | 1.54 | 3.23 | 1.61 | 5.22 | 5.81 | 20.1 | 4.13 | 13.5 | 2.41 | 8.6
COc1ccc(-c2nnc(Nc3nc(O)c(C4=c5cc(Br)ccc5=NC4=O)s3)o2)cc1 | 12.4 | 46.4 | 17.2 | 50.1 | 9.89 | > 55.8 | 1.34 | 33.8 | 35.4 | > 100 | 20.1 | 63.7 | 0.421 | 10 | 22.5 | > 71.8 | 15.5 | 40.3 | 17.3 | > 66.5
O=C(CC1Sc2ccccc2NC1=O)NNc1ccc(F)cc1 (centres undefined) | 83.5 | > 100 | 42.5 | > 100 | > 100 | > 100 | 30.9 | > 100 | > 100 | > 100 | 5.5 | > 100 | 47.6 | > 100 | 22.5 | > 100 | > 100 | > 100 | 52 | > 100
c1ccc(/C(=N\Nc2nc3ccccc3s2)c2ccccn2)cc1 | – | 70.1 | – | > 100 | – | 15.4 | – | 46 | – | 47.1 | – | 22.6 | – | > 100 | – | > 100 | – | 1.72 | – | 27.9
CCOC(=O)CCSC1=CC(=O)c2nc3ccccc3c3ccnc1c23 | > 100 | > 100 | 16.3 | 31.9 | 29.4 | 76.4 | 19.2 | 40.2 | 26.2 | 53.8 | 11.3 | 30.1 | 16.7 | 41.6 | 32.8 | > 100 | 12.6 | 37 | 9.55 | > 100
Nc1ncnc2c1ncn2CCCCC(=O)O | – | > 100 | – | > 100 | – | > 100 | – | > 100 | – | > 100 | – | > 100 | – | > 100 | – | > 100 | – | > 100 | – | > 100
NS(=O)(=O)c1cc(C(=O)O)c(Cl)c([N+](=O)[O-])c1Cl | – | > 100 | – | > 100 | – | > 100 | – | > 100 | – | > 100 | – | > 100 | – | > 100 | – | > 100 | – | > 100 | – | > 100
NCCCNc1nc2ccccc2c2c(=O)c3cc(F)cc(Cl)c3sc12 | 2.11 | 7.04 | 1.58 | 2.95 | 1.56 | 3.07 | 1.79 | 3.68 | 1.75 | 3.29 | 1.78 | 3.28 | 1.58 | 3.07 | 1.73 | 3.46 | 1.78 | 3.25 | 2.13 | 5.03
O=c1[nH]c2ccccc2n1C1CCN(CCOc2ccccc2)CC1 | 17.1 | 99.6 | 14.9 | 52.7 | 7.05 | 58.4 | 26.9 | > 100 | 35.8 | > 100 | 25.4 | > 100 | 27 | > 100 | 11.5 | > 100 | 14 | > 100 | 9.28 | > 100
CCS(=O)(=O)N1CCN(c2ccc(Nc3ncc(C(N)=O)c(NC4CC4)n3)cc2)CC1 | 4.32 | 8.97 | 5.46 | 28.5 | 63 | > 100 | 23.8 | > 100 | 6.14 | 21.6 | 3.23 | 69 | 22.8 | > 100 | 9.59 | > 100 | 5.73 | 31.4 | 2.16 | 9.82
Nc1no[n+]([O-])c1-c1nnc2c(n1)-c1ccccc1C2=O | 22.2 | 63.2 | 2.3 | 6.67 | 2.29 | 5.86 | 13 | 26.8 | 2.41 | 6.74 | 1.78 | 3.66 | 2.89 | 9.4 | 3.73 | 32.3 | 0.569 | 3.83 | 2.76 | 7.73
C1=C\CCCCN2CC[C@H]3[C@H](CCCC/C=C\CCCN4C[C@@H](CCCCC/1)C[C@@H]3C4)C2 | 6.31 | 21.4 | 5.13 | 14.1 | 11.8 | 25 | 2.58 | 7.6 | 3.28 | 12.9 | 1.77 | 3.44 | 6.03 | 19.1 | 13.8 | 28.8 | 10.8 | 23.3 | 2.06 | 6.16
O=C(c1ccc(Nc2nccc(NCCCCNc3ccnc4cc(Cl)ccc34)n2)cc1)N1CCCCC1 | 0.674 | 6.22 | 2.77 | 8.84 | 3.86 | 19.8 | 1.91 | 5.42 | 1.31 | 6.57 | 1.71 | 3.43 | 1.86 | 4.97 | 12.6 | > 100 | 1.92 | 4.63 | 0.999 | 4.44
Cc1nn(-c2ccccc2)c2nc(C)n(-c3ccc(Br)cc3)c(=O)c12 | 0.219 | 0.816 | 0.416 | > 100 | 0.822 | > 100 | 1.61 | > 100 | 0.355 | > 31.6 | 0.429 | > 100 | 1.45 | > 100 | 0.449 | > 100 | 0.405 | > 36.7 | 0.571 | > 54.6
CCCCNCCCCCNc1cc(OC)cc2cccnc12 | 16.2 | 38 | 18.4 | 37.7 | 29.6 | 99.2 | 3.1 | 16.4 | – | – | 14.9 | 28.5 | 23.2 | 50.8 | 17.2 | 36.4 | 19 | 45.5 | 15.5 | 39.8
COc1cc(NCCC2CCCCN2)c2ncccc2c1OC (centres undefined) | 22.6 | 41.8 | 9.56 | 30.2 | 15.6 | 48.6 | 16.9 | 31.8 | 13 | 33.6 | 16.5 | 36.3 | 3.02 | 12.5 | 22.8 | 70.5 | 2.13 | 5.01 | 10.1 | 50.8
O=C(Nc1cc2cc([N+](=O)[O-])ccc2oc1=O)c1cccs1 | – | > 100 | – | > 100 | – | > 100 | – | > 100 | – | > 100 | – | > 100 | – | > 100 | – | > 100 | – | > 100 | – | > 100
CCN(CC)CCCC(C)Nc1ccnc(/C=C/c2ccc(Cl)cc2)c1 (centres undefined) | 1.62 | 5.2 | – | 4.11 | – | 15.6 | – | 4.03 | – | 6.44 | – | 2.74 | – | 3.19 | – | 15.3 | – | 4.98 | – | 5.74
COc1cccc(-c2nn(-c3ccccc3)cc2-c2ccnc(NCCCNS(=O)(=O)c3ccc(C(F)(F)F)cc3)c2)c1 | 3.8 | > 100 | 5.76 | > 100 | 4.61 | > 100 | 5.22 | > 100 | 3.21 | – | 4.46 | > 100 | 4.98 | > 100 | 3.86 | > 100 | 5.75 | > 100 | 3.63 | > 100
Cc1cc(OCc2nn(CN3CCN(C)CC3)c(=S)n2/N=C/c2ccc(F)cc2)ccc1Cl | 16.8 | 31.3 | 20.1 | 40.9 | 20.4 | 43 | 18.8 | 33.1 | – | – | 17.9 | 33.1 | 18.5 | 36 | 18.8 | 36.1 | 17.4 | 34.3 | 16.8 | 40.7
Cn1cc(-c2nc(-c3cn(C)c4ncccc34)cs2)c2ccccc21 | 1.5 | 13.5 | 0.972 | > 100 | 1.77 | > 100 | 2.05 | > 100 | – | – | 0.955 | 20.4 | 3.16 | 21.8 | 0.62 | > 100 | 0.414 | 1.71 | 3.72 | > 100
CC[Si](CC)(CC)OC1[C@@H](O[Si](CC)(CC)CC)[C@@H](CNC(=O)NC)O[C@H]1n1cnc2c(NC(=O)Nc3ccccc3)ncnc21 (some centres undefined) | 1.61 | 6.38 | 2.76 | 12.2 | – | – | 3.22 | 16.2 | 2.4 | 6.13 | 3.75 | > 100 | 4.18 | 56.1 | 3.96 | > 100 | 2.63 | 7.7 | 2.13 | 5.33
